Experimental data reported in US8552176B2 (priority 2010, dated 2013).

What was measured:
Assay in all cases: cells
Type in all cases: cell-based, human
[1] = system: DU-145; conditions: read-out: GI50 DU-145 prostate
[2] = system: HCT-15; conditions: read-out: GI50 HCT-15 colorectal
[3] = system: HT29; conditions: read-out: GI50 HT29 colorectal
[4] = system: NCI-H460; conditions: read-out: GI50 NCI-H460 lung
[5] = system: SF-268; conditions: read-out: GI50 SF-268 CNS
[6] = system: MCF7; conditions: read-out: GI50 MCF7 breast
[7] = system: Hep3b; conditions: read-out: GI50 Hep3b liver
[8] = system: A549; conditions: read-out: GI50 A549 lung (+p53)
[9] = system: SKOV3; conditions: read-out: GI50 SKOV3 ovary
[10] = system: H1299; conditions: read-out: GI50 H1299 lung (−p53)

SMILES	GI50 [1] [nM]	GI50 [2] [nM]	GI50 [3] [nM]	GI50 [4] [nM]	GI50 [5] [nM]	GI50 [6] [nM]	GI50 [7] [nM]	GI50 [8] [nM]	GI50 [9] [nM]	GI50 [10] [nM]
CON(CCCCc1ccc(N(CCCl)CCCl)cc1)C1OC(CO)C(O)C(O)C1O (mixture of isomers) [Compound 10]	5800 ± 100	970 ± 70	600 ± 900	9500 ± 700	3100 ± 100	9300 ± 700	4400 ± 300	3400	3000 ± 100	530 ± 50
CON(CCCCc1ccc(N(CCCl)CCCl)cc1)C1OC(CO)C(O)C(O)C1O (mixture of isomers) [Compound 11]	6000 ± 100	1700 ± 100	2200 ± 100	10400 ± 800	3200 ± 100	9000 ± 700	2500 ± 100	3500 ± 200	3100 ± 100	1300 ± 100
CON(CCCCc1ccc(N(CCCl)CCCl)cc1)C1OC(CO)C(O)C(O)C1O (mixture of isomers) [Compound 12]	4100 ± 200	1400 ± 100	1600 ± 200	6600 ± 400	1900 ± 100	6500 ± 100	1700 ± 100	2400 ± 100	1900 ± 100	910 ± 50
CON(CCCCc1ccc(N(CCCl)CCCl)cc1)C1OC(CO)C(O)C(O)C1O (mixture of isomers) [Compound 13]	4100 ± 100	1400 ± 100	2100 ± 200	7900 ± 500	2300 ± 100	7900 ± 800	2000 ± 100	3100 ± 200	2500 ± 100	1300 ± 100
CON(CCCCc1ccc(N(CCCl)CCCl)cc1)C1OCC(O)C(O)C1O (mixture of isomers) [Compound 14]	3300 ± 100	900 ± 40	1500 ± 200	5000 ± 400	1800 ± 100	4600 ± 100	1600 ± 100	2000 ± 100	2000 ± 100	730 ± 30
CON(CCCCc1ccc(N(CCCl)CCCl)cc1)C1OCC(O)C(O)C1O (mixture of isomers) [Compound 15]	3600 ± 100	1000 ± 50	1900 ± 100	6100 ± 500	1900 ± 100	5400 ± 100	1900 ± 100	2300 ± 200	2200 ± 100	840 ± 40
CON(CCCCc1ccc(N(CCCl)CCCl)cc1)C1OC(CO)C(OC2OC(CO)C(O)C(O)C2O)C(O)C1O (mixture of isomers) [Compound 17]	1800 ± 100	2300 ± 100	1900 ± 100	3800 ± 300	1500 ± 100	1700 ± 100	1200 ± 100	1600 ± 100	1800 ± 100	1800 ± 100
CON(CCCCc1ccc(N(CCCl)CCCl)cc1)C1CC(O)C(O)C(C)O1 (mixture of isomers) [Compound 18]	4300 ± 100	1300 ± 100	2100 ± 90	6500 ± 400	2800 ± 100	6300 ± 100	3200 ± 100	2700 ± 200	3000 ± 100	1100 ± 100
CON(CCCCc1ccc(N(CCCl)CCCl)cc1)C1OC(C)C(O)C(O)C1O (mixture of isomers) [Compound 20]	4100 ± 900	820 ± 70	6700 ± 300	5900 ± 300	1700 ± 100	3000 ± 200	2600 ± 200	9600 ± 400	1700 ± 100	3500 ± 200
CON(CCCCc1ccc(N(CCCl)CCCl)cc1)C1OC(C)C(O)C(O)C1O (mixture of isomers) [Compound 21]	3800 ± 100	1400 ± 100	2300 ± 100	5400 ± 300	2000 ± 100	780 ± 90	3000 ± 100	2200 ± 100	1800 ± 100	1200 ± 100
CON(CCCCc1ccc(N(CCCl)CCCl)cc1)C1OC(C)C(OCc2ccccc2)C(OCc2ccccc2)C1OCc1ccccc1 (mixture of isomers) [Compound 22]	10000 ± 400	4600 ± 200	7500 ± 300	15800 ± 700	5700 ± 200	4000 ± 1000	9500 ± 400	6400 ± 200	7200 ± 400	3300 ± 200
CON(CCCCc1ccc(N(CCCl)CCCl)cc1)C1OC(CO)C(O)C(O)C1O (mixture of isomers) [Compound 23]	5600 ± 300	2400 ± 100	3300 ± 400	9700 ± 800	1900 ± 500	1300 ± 200	3600 ± 300	4400 ± 400	3400 ± 500	1300 ± 100
CON(CCCCc1ccc(N(CCCl)CCCl)cc1)C1OC(CO)C(O)C(O)C1O (mixture of isomers) [Compound 24]	5500 ± 200	2300 ± 300	3700 ± 500	10400 ± 700	2000 ± 400	1300 ± 100	3800 ± 300	4800 ± 400	4100 ± 600	1400 ± 100
CON(CCCCc1ccc(N(CCCl)CCCl)cc1)C1CC(O)C(O)C(CO)O1 (mixture of isomers) [Compound 25]	5000 ± 700	1600 ± 100	3500 ± 700	6600 ± 400	2200 ± 100	1040 ± 80	3300 ± 100	3200 ± 200	2400 ± 100	1500 ± 100
CON(CCCCc1ccc(N(CCCl)CCCl)cc1)C1OC(C(=O)O)C(O)C(O)C1O (mixture of isomers) [Compound 26]	16300 ± 500	8100 ± 600	14900 ± 100	34000 ± 2000	8900 ± 400	4500 ± 500	14700 ± 800	17100 ± 800	12800 ± 500	4900 ± 700
CON(CCCCc1ccc(N(CCCl)CCCl)cc1)C1OC(CO)C(O)C(O)C1NC(C)=O (mixture of isomers) [Compound 27]	16700 ± 700	19100 ± 800	12000 ± 1000	42000 ± 3000	4200 ± 400	4400 ± 600	11800 ± 400	22000 ± 1000	11000 ± 1000	3800 ± 400
CON(CCCCc1ccc(N(CCCl)CCCl)cc1)C1OC(CN)C(O)C(O)C1O (mixture of isomers) [Compound 34]	2800 ± 100	1300 ± 100	2500 ± 100	5000 ± 400	2200 ± 100	3700 ± 400	3500 ± 200	3700 ± 200	2200 ± 100	1100 ± 100
CON(CCCCc1ccc(N(CCCl)CCCl)cc1)C1OC(CO)C(O)C(O)C1O (mixture of isomers) [Compound 40]	4800 ± 100	880 ± 70	2900 ± 100	8000 ± 700	2000 ± 100	3200 ± 300	3900 ± 200	3300 ± 200	2500 ± 100	550 ± 50
CON(CCCCc1ccc(N(CCCl)CCCl)cc1)C1OCC(O)C(O)C1O (mixture of isomers) [Compound 41]	3600 ± 100	790 ± 50	2000 ± 100	5200 ± 400	1600 ± 100	1000 ± 200	2500 ± 100	2300 ± 100	1800 ± 100	760 ± 50
CON(CCCCc1ccc(N(CCCl)CCCl)cc1)C1OCC(O)C(O)C1O (mixture of isomers) [Compound 42]	3900 ± 100	950 ± 80	2400 ± 100	5800 ± 100	1200 ± 100	940 ± 200	3000 ± 100	2200 ± 100	1800 ± 100	880 ± 40
CON(CCCCc1ccc(N(CCCl)CCCl)cc1)C1OC(CO)C(O)C(O)C1O (mixture of isomers) [Compound 43]	5100 ± 200	1900 ± 200	2600 ± 200	7800 ± 700	1800 ± 100	1900 ± 100	3200 ± 200	3500 ± 200	2300 ± 100	1010 ± 70
CON(CCCCc1ccc(N(CCCl)CCCl)cc1)C1OC(CO)C(O)C(O)C1O (mixture of isomers) [Compound 44]	4900 ± 100	2200 ± 100	3400 ± 200	9800 ± 900	2000 ± 100	2200 ± 200	3700 ± 200	4100 ± 200	2900 ± 100	1200 ± 100
CON(CCCCc1ccc(N(CCCl)CCCl)cc1)C1OC(CO)C(O)C(O)C1NC(C)=O (mixture of isomers) [Compound 45]	16000 ± 1000	22000 ± 2000	8700 ± 700	33300 ± 500	3400 ± 200	9000 ± 1000	9800 ± 700	21000 ± 2000	10100 ± 900	2700 ± 200
CON(CCCCc1ccc(N(CCCl)CCCl)cc1)C1OC(C)C(O)C(O)C1O (mixture of isomers) [Compound 51]	4200 ± 100	2000 ± 100	2400 ± 100	5300 ± 400	1900 ± 100	2200 ± 200	2600 ± 100	2500 ± 100	2000 ± 100	3700 ± 300
CON(CCCCc1ccc(N(CCCl)CCCl)cc1)C1OC(C)C(O)C(O)C1O (stereo not drawn) [Compound 37]	4900 ± 100	1100 ± 100	2200 ± 200	8500 ± 800	2900 ± 100	5800 ± 100	4400 ± 300	4600 ± 200		1800 ± 100
